{"source": "paper PMC3723878", "about": "(PLoS ONE, 2013)", "key": {"α1A-AR [1]": {"biological_target": "T1, α1A-AR (Homo sapiens, UniProt P35348)", "T1 sequence (P35348 1-466)": "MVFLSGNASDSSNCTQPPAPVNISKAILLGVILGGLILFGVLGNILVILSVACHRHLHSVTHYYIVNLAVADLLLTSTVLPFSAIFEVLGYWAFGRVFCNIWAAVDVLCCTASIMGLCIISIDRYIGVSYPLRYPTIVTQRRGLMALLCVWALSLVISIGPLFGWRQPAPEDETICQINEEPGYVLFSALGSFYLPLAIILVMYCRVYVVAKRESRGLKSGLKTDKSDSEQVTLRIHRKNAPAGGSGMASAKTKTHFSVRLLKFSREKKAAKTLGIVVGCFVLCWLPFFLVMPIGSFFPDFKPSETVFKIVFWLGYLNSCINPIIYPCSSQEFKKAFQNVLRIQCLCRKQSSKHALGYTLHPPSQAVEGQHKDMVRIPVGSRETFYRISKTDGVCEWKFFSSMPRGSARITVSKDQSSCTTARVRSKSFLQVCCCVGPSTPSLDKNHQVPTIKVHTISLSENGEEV", "assay": "Intracellular Ca^2+ release in CHO-K1 cells expressing the α1A-AR", "type": "cell-based", "set-up": "expressed in transfected cells", "conditions": "for Emax: CHO-K1, read-out: Emax, Ca^2+ release", "description": "(§1) CHO cells stably expressing α1-ARs were kindly provided by Dr. Hervé Paris (INSERM U858, Toulouse, France) and were grown in a 50∶50 Dulbecco's Modified Eagle's Medium (DMEM)/Ham's F12 medium supplemented with 10% (v/v) foetal bovine serum (FBS), glutamine (2 mM), penicillin (100 units/ml) and streptomycin (100 µg/ml) at 37°C with 5% CO2. COS-7 cells were grown at 37°C under 5% CO2 in Dulbecco's modified Eagle's medium containing 10% fetal calf serum, 1% penicillin and 1% glutamine (Sigma-Aldrich, St Quentin-Fallavier, France). At 80% confluence, the cells were transfected using a calcium phosphate precipitation method for transient expression of the genetic construct. After 48 h incubation at 37°C, cells were harvested and the membranes were prepared as follow. Cells were washed with ice-cold phosphate buffer and centrifuged at 1700 g for 10 min (4°C). The pellet was suspended in ice-cold buffer (1 mM EDTA, 25 mM sodium phosphate, and 5 mM MgCl2, pH 7.4) and homogenized using an Potter-Elvehjem homogenizer (Fisher Scientific Labosi, Elancourt, France). The homogenate was centrifuged at 1700 g for 15 min (4°C). The sediment was resuspended in buffer, homogenized, and centrifuged at 1700 g for 15 min (4°C). The combined supernatants were centrifuged at 35,000 g for 30 min (4°C), and the pellet was suspended in the same buffer (0.1 ml/dish). […] Cells were grown in a 50∶50 Dulbecco's Modified Eagle's Medium (DMEM)/Ham's F12 medium supplemented with 10% (v/v) foetal bovine serum (FBS), glutamine (2 mM), penicillin (100 units/ml) and streptomycin (100 µg/ml) at 37°C with 5% CO2. Media was changed every 2–3 days and cells were passaged when confluent with 0.05% trypsin and 0.02% EDTA.\nAll experiments were performed in duplicate."}, "human α1A-AR WT": {"biological_target": "T2, human α1A-AR WT (Homo sapiens, UniProt P35348)", "T2 construct": "expressed in transfected cells; host or cells: COS-7, transient (calcium phosphate)", "T2 sequence (P35348 1-466)": "T1 sequence (P35348 1-466)", "assay": "Competition binding with ^125I-HEAT, wild type receptor", "description": "as §1\n(§2) Binding experiments were performed in a 100 µL reaction mix at room temperature in buffer composed of 50 mM Tris-HCl, pH 7.4, 10 mM MgCl2, 1 g/L BSA. Reactions were stopped by filtration through 96 GF/C filter plates pre-incubated with 0.5% polyethylenimine.\n(§3) Binding data were analyzed by nonlinear regression using the KaleidaGraph 4.0 software (Synergy software, Reading, PA). pKD values and Bmax (number of binding sites) were determined by applying a nonlinear regression to data obtained with saturation binding assays. […] Data resulting from competition binding assays were analyzed using the Hill equation for IC50 and curve slope estimations. […] The linear curves were analyzed with IC50 = Ki+(L/KD)*Ki. Dissociation kinetics were analyzed using a simple equation of exponential decay BS * exp (-Koff*t), where BS is the specific binding at time zero and Koff is the dissociation rate constant. Results are expressed as mean ± s.e. mean from n independent experiments. […]"}, "[2]": {"biological_target": "T3, human α1A-AR F187A variant (Homo sapiens, UniProt P35348, F187A)", "T3 construct": "expressed in transfected cells; host or cells: COS-7, transient (calcium phosphate)", "T3 sequence (P35348 1-466 F187A)": "T1 sequence (P35348 1-466) with F187A", "assay": "Saturation binding of ^125I-HEAT", "conditions": "F187A variant relative to wild type", "from_the_text": "(§4) α1A-AR cDNA inserted in the prK5 vector was kindly provided by Michael Brownstein (Craig Venter Institute, Rockville, MD). Point mutations were introduced into the α1A-AR gene by sense and antisense primers (Sigma-Aldrich, St Quentin-Fallavier, France) containing the desired changes, using the QuikChange Site-Directed Mutagenesis kit. The incorporation of each mutation was verified by DNA sequencing.\nas §1, §2\nBinding data were analyzed by nonlinear regression using the KaleidaGraph 4.0 software (Synergy software, Reading, PA). pKD values and Bmax (number of binding sites) were determined by applying a nonlinear regression to data obtained with saturation binding assays. The nonlinear regression used was BS = (Bmax*A)/KD+A, where BS is the specific binding, Bmax the number of binding sites, A the concentration of radioligand, and KD the dissociation constant of the radioligand. Data resulting from competition binding assays were analyzed using the Hill equation for IC50 and curve slope estimations. […] The linear curves were analyzed with IC50 = Ki+(L/KD)*Ki. Dissociation kinetics were analyzed using a simple equation of exponential decay BS * exp (-Koff*t), where BS is the specific binding at time zero and Koff is the dissociation rate constant. Results are expressed as mean ± s.e. mean from n independent experiments. One-way Anova test was used to compare values. A p<0.05 was accepted for statistical significance."}, "[3]": {"biological_target": "T4, human α1A-AR F86A variant (Homo sapiens, UniProt P35348, F86A)", "T4 construct": "expressed in transfected cells; host or cells: COS-7, transient (calcium phosphate)", "T4 sequence (P35348 1-466 F86A)": "T1 sequence (P35348 1-466) with F86A", "assay": "Competition binding with ^125I-HEAT", "from_the_text": "as §4\nas §1, with “Media was changed every 2–3 days and cells were passaged when confluent with 0.05% trypsin and 0.02% EDTA.” left out\nas §3"}, "[4]": {"biological_target": "T5, human α1A-AR D106A variant (Homo sapiens, UniProt P35348, D106A)", "T5 construct": "expressed in transfected cells; host or cells: COS-7, transient (calcium phosphate)", "T5 sequence (P35348 1-466 D106A)": "T1 sequence (P35348 1-466) with D106A", "assay": "Competition binding with ^125I-HEAT", "from_the_text": "as §4\nas §1, with “Media was changed every 2–3 days and cells were passaged when confluent with 0.05% trypsin and 0.02% EDTA.” left out\nas §3"}, "α1A-AR [5]": {"biological_target": "T1, α1A-AR", "assay": "Competition binding with ^3H-prazosin", "set-up": "expressed in transfected cells", "conditions": "inhibition of ^3H-prazosin 2 nM", "description": "CHO cells stably expressing α1-ARs were kindly provided by Dr. Hervé Paris (INSERM U858, Toulouse, France) and were grown in a 50∶50 Dulbecco's Modified Eagle's Medium (DMEM)/Ham's F12 medium supplemented with 10% (v/v) foetal bovine serum (FBS), glutamine (2 mM), penicillin (100 units/ml) and streptomycin (100 µg/ml) at 37°C with 5% CO2. COS-7 cells were grown at 37°C under 5% CO2 in Dulbecco's modified Eagle's medium containing 10% fetal calf serum, 1% penicillin and 1% glutamine (Sigma-Aldrich, St Quentin-Fallavier, France). At 80% confluence, the cells were transfected using a calcium phosphate precipitation method for transient expression of the genetic construct. […]\nas §3"}, "α1B-AR": {"biological_target": "α1B-AR", "set-up": "method as in PMID 20015090", "conditions": "α1B-AR expressed in yeast; read-out: affinity; cited from earlier work"}, "α1A-AR [6]": {"system": "α1A-AR", "set-up": "method as in PMID 20015090", "conditions": "cited from earlier work"}, "α1D-AR": {"biological_target": "α1D-AR", "set-up": "method as in PMID 20015090", "conditions": "α1D-AR expressed in yeast; read-out: affinity; cited from earlier work"}, "[7]": {"conditions": "linear fit of ρ-Da1a IC50 against ^125I-HEAT concentration"}}, "note": "Positions count from the first letter of the chain named.", "data": [{"molecule": "NC[C@H](O)c1ccc(O)c(O)c1", "note": "[noradrenaline]", "values": [{"measurement": "Emax", "setting": "α1A-AR [1]", "value": "77.8 ± 1.5", "unit": "%"}]}, {"molecule": "CNC[C@H](O)c1cccc(O)c1", "note": "[phenylephrine]", "values": [{"measurement": "Emax", "setting": "α1A-AR [1]", "value": "64.8 ± 2.4", "unit": "%"}]}, {"molecule": "O=C1c2ccccc2CCC1CNCCc1ccc(O)cc1", "note": "(stereo not shown) [HEAT]", "values": [{"measurement": "Ratio (Ki relative to WT)", "setting": "human α1A-AR WT; WT", "value": 1}, {"measurement": "pKi", "setting": "human α1A-AR WT; WT, competition with ^125I-HEAT 200 pM", "value": "9.57±0.08"}, {"measurement": "Kd", "setting": "human α1A-AR WT; [7]", "value": 0.0435, "unit": "nM"}, {"measurement": "pKd", "setting": "human α1A-AR WT; [7]", "value": 10.36}, {"measurement": "increase in HEAT affinity", "setting": "[2]", "value": 4.5, "unit": "fold"}, {"measurement": "Ratio (reduction of affinity relative to WT)", "setting": "[3]", "value": "23 ^*"}, {"measurement": "pKi", "setting": "[3]; competition with ^125I-HEAT […]", "value": "8.21±0.09"}, {"measurement": "Ratio (reduction of affinity relative to WT)", "setting": "[4]", "value": 0.67}, {"measurement": "pKi", "setting": "[4]; competition with ^125I-HEAT 200 pM", "value": "9.74±0.12"}, {"measurement": "Hill slope", "setting": "α1A-AR [5]", "value": 0.85}, {"measurement": "pKi", "setting": "α1A-AR [5]; n = 3", "value": "9.66±0.08", "unit": "nM"}]}, {"molecule": "ρ-Da1a", "values": [{"measurement": "Ki", "setting": "α1B-AR", "value": 317, "unit": "nM"}, {"measurement": "displacement of ^3H-prazosin binding", "setting": "α1A-AR [6]; yeast membranes expressing the α1A-AR", "value": 85, "unit": "%"}, {"measurement": "Ki", "setting": "α1A-AR [6]; α1A-AR expressed in yeast, read-out: affinity", "value": 0.35, "unit": "nM"}, {"measurement": "Ki", "setting": "α1D-AR", "value": 420, "unit": "nM"}]}, {"molecule": "CS(=O)(=O)Nc1c(O)ccc2c1CCCC2C1=NCCN1", "note": "(stereo not shown) [A61603]", "values": [{"measurement": "Emax, Ca^2+ release", "setting": "α1A-AR [1]; CHO-K1 cells expressing the α1A-AR, agonist alone, A23187 1 µM", "value": "75.5±1.3 percentage of peak A23187 response"}]}, {"molecule": "Cc1cc(C(C)(C)C)c(O)c(C)c1CC1=NCCN1", "note": "[oxymetazoline]", "values": [{"measurement": "Emax", "setting": "α1A-AR [1]", "value": "60.8 ± 1.3", "unit": "%"}]}]}
